# Source: ChEMBL document CHEMBL5113515, “The Discovery of GSK3640254, a Next-Generation Inhibitor of HIV-1 Maturation” (J Med Chem, 2022)
# Assays:
# [1] = test system: Human immunodeficiency virus 1; test: Binding affinity to HIV1 wild type Gag assessed as dissociation constant by measuring half life
# [2] = test system: Human immunodeficiency virus 1; test: Antiviral activity against HIV1 harbouring V362I/V370A mutant infected in human MT2 cells measured after 4 to 5 days by dual-luciferase reporter assay; assay type: functional, organism-based; conditions: Human immunodeficiency virus 1, MT2
# [3] = test system: Human immunodeficiency virus 1; test: Antiviral activity against HIV1 harbouring deltaV370/T371A mutant infected in human MT2 cells measured after 4 to 5 days by dual-luciferase reporter assay; assay type: functional, organism-based; conditions: Human immunodeficiency virus 1, MT2
# [4] = test system: Human immunodeficiency virus 1; test: Antiviral activity against HIV1 wild type NL (4 to 3) infected in human MT2 cells measured after 4 to 5 days by dual-luciferase reporter assay; assay type: functional, organism-based; conditions: Human immunodeficiency virus 1, MT2
# [5] = test system: MT2; test: Cytotoxicity in human MT2 cells assessed as reduction in cell viability; assay type: functional
# [6] = test system: Human immunodeficiency virus 1; test: Antiviral activity against HIV1 wild type NL (4 to 3) infected in human MT2 cells measured after 4 to 5 days in presence of human serum by dual-luciferase reporter assay; assay type: functional, organism-based; conditions: Human immunodeficiency virus 1, MT2
# [7] = test system: Human immunodeficiency virus 1; test: Antiviral activity against HIV1 harbouring T332S/V362I/prR41G mutant infected in human MT2 cells measured after 4 to 5 days by dual-luciferase reporter assay; assay type: functional, organism-based; conditions: Human immunodeficiency virus 1, MT2
# [8] = AUC(0 to t) in overnight fasted Sprague-Dawley rat at 5 mg/kg, po or 1 mg/kg, iv; assay type: ADME, organism-based; design: dose 5 mg/kg, route po; conditions: in vivo
# [9] = Volume of distribution at steady state in overnight fasted mouse at 5 mg/kg, po or 1 mg/kg, iv; assay type: ADME, organism-based; conditions: in vivo
# [10] = Oral bioavailability in overnight fasted cynomolgus monkey using spray-dried dispersion at 2 mg/kg; assay type: ADME, organism-based, Macaca fascicularis; conditions: in vivo
# [11] = test system: Human immunodeficiency virus 1; test: Antiviral activity against HIV1 NL (4 to 3) harbouring V362I/deltaV370 mutant transfected in human HEK293T cells by dual-luciferase reporter assay; assay type: functional, organism-based; conditions: Human immunodeficiency virus 1, HEK-293T
# [12] = Volume of distribution at steady state in overnight fasted cynomolgus monkey at 2 mg/kg, po or 1 mg/kg, iv; assay type: ADME, organism-based, Macaca fascicularis; conditions: in vivo
# [13] = Oral bioavailability in overnight fasted Beagle dog using spray-dried dispersion at 2 mg/kg; assay type: ADME, organism-based, Canis lupus familiaris; conditions: in vivo
# [14] = test system: Human immunodeficiency virus 1; test: Antiviral activity against HIV1 wild type subtype B NL (4 to 3) transfected in human HEK293T cells by dual-luciferase reporter assay; assay type: functional, organism-based; conditions: Human immunodeficiency virus 1, HEK-293T
# [15] = Half life in overnight fasted Beagle dog at 1 mg/kg, iv; assay type: ADME, organism-based, Canis lupus familiaris; conditions: in vivo
# [16] = test system: Human immunodeficiency virus 1; test: Antiviral activity against HIV1 virus harboring NL (4 to 3) harbouring […]/V370A mutant transfected in human HEK293T cells by luciferase reporter assay; assay type: functional, organism-based; conditions: Human immunodeficiency virus 1, HEK-293T
# [17] = Volume of distribution at steady state in overnight fasted Sprague-Dawley rat at 5 mg/kg, po or 1 mg/kg, iv; assay type: ADME, organism-based; conditions: in vivo
# [18] = Binding affinity to HIV1 wild type Gag assessed as dissociation constant; design: species or system Human immunodeficiency virus 1
# [19] = test system: Human immunodeficiency virus 1; test: Antiviral activity against HIV in plasma assessed log10 reduction of HIV RNA over 40 mg/kg, po measured after 11 days; assay type: functional; conditions: time 11 day
# [20] = test system: Human immunodeficiency virus 1; test: Antiviral activity against HIV1 NL (4 to 3) harbouring V362I mutant transfected in human HEK293T cells by dual-luciferase reporter assay; assay type: functional, organism-based; conditions: Human immunodeficiency virus 1, HEK-293T
# [21] = Cmax in overnight fasted Beagle dog at 2 mg/kg, po or 1 mg/kg, iv; assay type: ADME, organism-based, Canis lupus familiaris; design: dose 2 mg/kg, route po; conditions: in vivo
# [22] = Cmax in overnight fasted cynomolgus monkey at 2 mg/kg, po or 1 mg/kg, iv; assay type: ADME, organism-based, Macaca fascicularis; design: dose 2 mg/kg, route po; conditions: in vivo
# [23] = test system: Human immunodeficiency virus 1; test: Antiviral activity against HIV1 wild type subtype C NL (4 to 3) transfected in human HEK293T cells by dual-luciferase reporter assay; assay type: functional, organism-based; conditions: Human immunodeficiency virus 1, HEK-293T
# [24] = test system: Human immunodeficiency virus 1; test: Antiviral activity against HIV1 wild type subtype B NL (4 to 3) harbouring V362/Q369/V370/T371 transfected in human HEK293T cells by dual-luciferase reporter assay; assay type: functional, organism-based; conditions: Human immunodeficiency virus 1, HEK-293T
# [25] = Volume of distribution at steady state in overnight fasted Beagle dog at 2 mg/kg, po or 1 mg/kg, iv; assay type: ADME, organism-based, Canis lupus familiaris; conditions: in vivo
# [26] = AUC(0 to t) in overnight fasted mouse at 5 mg/kg, po or 1 mg/kg, iv; assay type: ADME, organism-based; design: dose 5 mg/kg, route po; conditions: in vivo
# [27] = AUC(0 to t) in overnight fasted cynomolgus monkey at 2 mg/kg, po or 1 mg/kg, iv; assay type: ADME, organism-based, Macaca fascicularis; design: dose 2 mg/kg, route po; conditions: in vivo
# [28] = AUC(0 to t) in overnight fasted Beagle dog at 2 mg/kg, po or 1 mg/kg, iv; assay type: ADME, organism-based, Canis lupus familiaris; design: dose 2 mg/kg, route po; conditions: in vivo
# [29] = AUC in rat at 5 mg/kg, po; assay type: ADME, organism-based; design: dose 5 mg/kg, route po; conditions: in vivo, read-out: AUC
# [30] = Aqueous solubility of compound at pH 1 to 8; assay type: physicochemical
# [31] = Solubility of the compound in FeSSIF at pH 5.0; assay type: physicochemical
# [32] = Solubility of the compound in FaSSIF at pH 6.5; assay type: physicochemical
smiles,measurement,setting,value
C=C(C)[C@@H]1CC[C@]2(NCCN3CCS(=O)(=O)CC3)CC[C@]3(C)[C@H](CC[C@@H]4[C@@]5(C)CC=C(C6=CC[C@@](CF)(C(=O)O)CC6)C(C)(C)[C@@H]5CC[C@]43C)[C@@H]12,T1/2,[1],5.73 h
C=C(C)[C@@H]1CC[C@]2(NCCN3CCS(=O)(=O)CC3)CC[C@]3(C)[C@H](CC[C@@H]4[C@@]5(C)CC=C(C6=CCC(CCO)(C(=O)O)CC6)C(C)(C)[C@@H]5CC[C@]43C)[C@@H]12 (some centres undefined),EC50,[2],4.5 nM
same,EC50,[3],5.3 nM
same,EC50,[4],4.6 nM
same,CC50,[5],12.7 µM
same,EC50,[6],85.8 nM
same,EC50,[7],15.9 nM
C=C(C)[C@@H]1CC[C@]2(NCCN3CCS(=O)(=O)CC3)CC[C@]3(C)[C@H](CC[C@@H]4[C@@]5(C)CC=C(c6ccc(C(=O)O)cc6)C(C)(C)[C@@H]5CC[C@]43C)[C@@H]12 [BMS-955176],AUC(0-t),[8],14.2 µM·h
same,EC50,[2],> 3000 nM
same,Vdss,[9],0.82 L/kg
same,bioavailability,[10],4%
same,EC50,[3],6 nM
same,EC50,[11],1400 nM
same,EC50,[4],5 nM
same,Vdss,[12],0.43 L/kg
same,CC50,[5],13 µM
same,F,[13],9%
same,EC50,[14],66 nM
same,half-life,[15],1900 min
same,EC50,[16],> 3000 nM
same,Vdss,[17],1.1 L/kg
same,Kd,[18],1.4 nM
same,EC50,[6],10.2 nM
same,Activity,[19],>1 log10IU/ml
same,EC50,[20],11.1 nM
same,T1/2,[1],0.717 h
same,Cmax,[21],600 nM
same,EC50,[7],704 nM
same,Cmax,[22],100 nM
same,EC50,[23],9.1 nM
same,EC50,[24],2.8 nM
same,Vdss,[25],0.36 L/kg
same,AUC(0-t),[26],21.6 µM·h
same,AUC(0-t),[27],1 µM·h
same,AUCt,[28],29.3 µM·h
C=C(C)[C@@H]1CC[C@]2(NCCN3CCS(=O)(=O)CC3)CC[C@]3(C)[C@H](CC[C@@H]4[C@@]5(C)CC=C(C6=CCC(O)(C(=O)O)CC6)C(C)(C)[C@@H]5CC[C@]43C)[C@@H]12 (some centres undefined),EC50,[2],6 nM
same,EC50,[3],2.4 nM
same,EC50,[4],2 nM
same,CC50,[5],6.4 µM
same,EC50,[6],13.1 nM
same,EC50,[7],28.5 nM
C=C(C)[C@@H]1CC[C@]2(NCCN3CCS(=O)(=O)CC3)CC[C@]3(C)[C@H](CC[C@@H]4[C@@]5(C)CC=C(C6=CC7(C6)CC(C(=O)O)C7)C(C)(C)[C@@H]5CC[C@]43C)[C@@H]12 (some centres undefined),EC50,[2],48.5 nM
same,EC50,[3],5.8 nM
same,CC50,[5],10.7 µM
same,AUC,[29],11.7 µM·h
same,EC50,[7],363 nM
C=C(C)[C@@H]1CC[C@]2(NCCN3CCC(S(C)(=O)=O)CC3)CC[C@]3(C)[C@H](CC[C@@H]4[C@@]5(C)CC=C(C6=CCC(CO)(C(=O)O)CC6)C(C)(C)[C@@H]5CC[C@]43C)[C@@H]12 (some centres undefined),EC50,[2],1.2 nM
same,EC50,[3],1 nM
same,EC50,[4],1.1 nM
same,CC50,[5],9.47 µM
same,AUC,[29],2.37 µM·h
same,EC50,[6],12.6 nM
same,EC50,[7],4.6 nM
C=C(C)[C@@H]1CC[C@]2(NCCN3CCC(S(C)(=O)=O)CC3)CC[C@]3(C)[C@H](CC[C@@H]4[C@@]5(C)CC=C(C6=CCC(CCO)(C(=O)O)CC6)C(C)(C)[C@@H]5CC[C@]43C)[C@@H]12 (some centres undefined),EC50,[2],2.2 nM
same,EC50,[3],3.7 nM
same,EC50,[4],3 nM
same,CC50,[5],4.9 µM
same,AUC,[29],0.591 µM·h
same,EC50,[6],154 nM
same,EC50,[7],10.1 nM
C=C(C)[C@@H]1CC[C@]2(NCCN3CCC(S(C)(=O)=O)CC3)CC[C@]3(C)[C@H](CC[C@@H]4[C@@]5(C)CC=C(C6=CCC(C(=O)O)(C(F)F)CC6)C(C)(C)[C@@H]5CC[C@]43C)[C@@H]12 (some centres undefined),EC50,[2],2.5 nM
same,EC50,[3],1.3 nM
same,EC50,[4],1.9 nM
same,CC50,[5],11 µM
same,AUC,[29],17.9 µM·h
same,EC50,[6],12.7 nM
same,EC50,[7],6.6 nM
C=C(C)[C@@H]1CC[C@]2(NCCN3CCS(=O)(=O)CC3)CC[C@]3(C)[C@H](CC[C@@H]4[C@@]5(C)CC=C(C6=CCC(CC(=O)O)CC6)C(C)(C)[C@@H]5CC[C@]43C)[C@@H]12 (some centres undefined),EC50,[2],15.7 nM
same,EC50,[3],5.3 nM
same,EC50,[4],13.1 nM
same,CC50,[5],6.4 µM
same,EC50,[6],12 nM
same,EC50,[7],124 nM
C=C(C)[C@@H]1CC[C@]2(NCCN3CCC(S(C)(=O)=O)CC3)CC[C@]3(C)[C@H](CC[C@@H]4[C@@]5(C)CC=C(C6=CCC(CCCO)(C(=O)O)CC6)C(C)(C)[C@@H]5CC[C@]43C)[C@@H]12 (some centres undefined),EC50,[2],3.2 nM
same,EC50,[3],2.9 nM
same,EC50,[4],2.6 nM
same,CC50,[5],12.4 µM
same,AUC,[29],4.36 µM·h
same,EC50,[6],16 nM
same,EC50,[7],7.9 nM
C=C(C)[C@@H]1CC[C@]2(NCCN3CCS(=O)(=O)CC3)CC[C@]3(C)[C@H](CC[C@@H]4[C@@]5(C)CC=C(C6=CC[C@@](CF)(C(=O)O)CC6)C(C)(C)[C@@H]5CC[C@]43C)[C@@H]12.Cl.Cl,solubility,[30],< 1 µg/mL
same,solubility,[31],800 µg/mL
same,solubility,[32],310 µg/mL
C=C(C)[C@@H]1CC[C@]2(NCCN3CCS(=O)(=O)CC3)CC[C@]3(C)[C@H](CC[C@@H]4[C@@]5(C)CC=C(C6=CC7C(C6)C7C(=O)O)C(C)(C)[C@@H]5CC[C@]43C)[C@@H]12 (some centres undefined),EC50,[2],657 nM
same,EC50,[3],16.7 nM
same,EC50,[4],2.3 nM
same,CC50,[5],6.4 µM
same,EC50,[6],30.9 nM
same,EC50,[7],299 nM
